“Also recorded” adds a separate entry of the source. Square brackets hold non-standard residues; d marks the D form. Primed or numbered codes have the meaning given here. Ends that are not written are not given here. Stearyl = stearyl group covalently linked to the N-terminus; PEG4′ = four-unit PEG spacer; PEG2′ = two-unit PEG spacer; PEG7′ = (PEG)7 moiety; Ava = NCCCCC(=O)O; βAla = NCCC(=O)O
Key:
[1] = tested on: mice; test: In vivo delivery of Luciferase mRNA by targeted ADGN-peptide variants, intravenous (Example 9); conditions: 5 μg Luc mRNA
[2] = tested on: mice or rat models; test: Summary of cargo delivery to targeted organ (Table 1); type: in vivo; conditions: cargoes and route (IV, IM, SQ, NB) per peptide as listed in Table 1
Source text: Table 1 lists a summary of cell-penetrating peptides that have been proven successful in delivering various cargo molecules to on or more targeted organ (e.g., by intravenous (IV), intramuscular (IM), or subcutaneous (SQ) administration, or intratraccheal instillation or nebulization (NB)) in mice or rat models.

[3] = tested on: 293T cells; test: Cellular delivery of Luciferase mRNA, luciferase expression at 72 hrs; type: cell-based; conditions: 0.25 μg Luc mRNA; for reduction of efficiency / luciferase expression by modification or linker vs unmodified ADGN peptide: absence of serum or heparan sulfate; for luciferase expression: absence of serum or heparan sulfate treatment; for reduction of efficiency / luciferase expression after serum treatment: complexes incubated 3 hrs in 25% serum prior transfection
Description: FIGS. 1A-1C show luciferase expression in 293T cells treated with ADGN-peptide/mRNA complexes. 293T cells cultured in 48 well plates were transfected with ADGN-peptide nanoparticles. ADGN-100, ADGN-106, ADGN-100RI, ADGN-106RI, ADGN-100 Stearyl, ADGN-Hydro1, ADGN-Hydro2, ADGN-Hydro3, ADGN-Hydro4, ADGN-Hydro5, ADGN-Hydro6 and ADGN-peptide/ADGN-100PEG 10% nanoparticles containing 0.25 μg mRNA were formed in sterile water, diluted in sterile water containing 5% Sucrose and filtered with 0.45 μm PES filters. ADGN/mRNA complexes were incubated for 3 hrs in the presence of either 25% serum or heparan sulfate prior transfection. Luciferase expression was monitored 72 hours post transfection and results were reported as RLU (luminescence):mg of protein.
Complex formation with mRNA. The following protocols were used for the transfection of 2-5 106 Cells or Cells at confluency of about 70-80% cultured in 24 well plates. ADGN peptide/mRNA particles were prepared at a 20:1 molar ratio of ADGN-Peptide/mRNA. using (0.25 μg) mRNA. Luc mRNA (0.25 μg) was diluted in 20 μl of sterile water (GIBCO) at room temperature. 5 μl Final Peptide Solution was added to obtain a total volume of 20 μl. The volume was adjusted to 50 μl with sterile water and was mixed gently with vortex 1 min low speed and incubated 30 min at room temperature. Then the volume was made up to 100 μl by adding sterile water containing 5% sucrose, and the solution was mixed gently with vortex 1 min low speed and incubate 5 min at 37° C. and then was proceeded to cell transfection.
Transfection protocol. Protocol is reported for 24 well plate format. Cells were cultured in Dulbecco's Modified Eagle's Medium (DMEM), supplemented with 2 mM glutamine, 1% antibiotics (streptomycin 10,000 μg/mL, penicillin, 10,000 IU/mL) and 10% (w/v) foetal calf serum (FCS), at 37° C. in a humidified atmosphere containing 5% CO2. 24 well plates seeded with 150,000 cells the day prior to transfection were grown to 50-60% confluence and set up to be at about 70% confluences at the time of transfection. Before transfection, cells were washed twice with DMEM. Cells were then overlaid with 0.1 ml of ADGN-peptide/cargo complex solution containing 0.25 μg mRNA, 0.15 μg plasmid DNA or 10-25 nM siRNA, mixed gently, and incubated for 10 min at 37° C. 0.2 mL of fresh DMEM, were added and cells were incubated for 20 min at 37° C. 1 mL of complete DMEM containing 15% FCS were then added in order to reach a final FCS concentration of 10%, without removing the overlay of ADGN-peptide/cargo complexes. Cells were returned to the incubator (37° C., 5% CO2) and 72 hrs post transfection.
ADGN-peptides were evaluated for cellular delivery of Luciferase mRNA in 293T cells. A single dose of mRNA of 0.25 μg was evaluated. Luc mRNA (0.25 μg) in sterile water (GIBCO) were mixed with ADGN-100, ADGN-100RI, ADGN-106, ADGN-106RI, ADGN-100 Stearyl, ADGN-Hydro1, ADGN-Hydro2, ADGN-Hydro5 and ADGN-Hydro6. ADGN-peptide/mRNA complexes were filtered with 0.45 μm PES filter. In order to evaluate the stability of the ADGN/mRNA complexes in high serum and cell culture conditions, the complexes were incubated for 3 hrs in the presence of either 25% serum or heparan sulfate prior transfection, then 293T cells were transfected and Luciferase expression was monitored at 72 hrs.
ADGN-106 peptides containing YIGSR targeting sequence were evaluated for cellular delivery of Luciferase mRNA in 293T cells. A single dose of mRNA of 0.25 μg was evaluated. Luc mRNA (0.25 μg) in sterile water (GIBCO) were mixed with ADGN-106 and ADGN-106Hydro variant. ADGN-peptide/mRNA complexes were filtered with 0.45 μm PES filter. The ADGN-106/mRNA complexes were incubated for 3 hrs in the presence of 25% serum prior transfection, then 293T cells were transfected and Luciferase expression was monitored at 72 hrs.

Substance | target delivery and expression of mRNA (tissues) [1] | Targeted Organ [2] | further results
AC-ALWRA(GalNac)LWRLWRSLWRLLWKA-NH2 [ADGN-106GALNAC] | mRNA accumulation in the liver | Liver | 
Ac-ASSLNIA-Ava-KWWERWWREWPRKRR-NH2 [ADGN-103C] | negligible luciferase expression |  | 
Ac-CARPAR-WRSAGWRWRLWRVRSWSR-NH2 (Ac-CARPARWRSAGWRWRLWRVRSWSR-NH2) [ADGN-101] | heart and muscles | Heart/Lung | increase of luciferase expression / efficiency in the lung relative to parent peptide [1]: 6 fold
Ac-CKRAV-RWWLRWASRWFSRWAWWR-NH2 [ADGN-109b] | the lung, heart and muscles |  | 
Ac-CKTRRVP-WRALWRLWRSLWRLLWKA-NH2 (Ac-CKTRRVPWRALWRLWRSLWRLLWKA-NH2) [ADGN-106TD] | heart and muscles | Muscle/Heart | 
Ac-KSYDTYAAETR-RWASRWFSRWAWWR-NH2 [ADGN-109D] | the brain and lymphnode and at lower level in liver and kidney |  | 
Ac-KSYDTY[Ava]ALRWLRWASRWFSRWAWR-NH2 [ADGN-109] | the brain and lymphnode and at lower level in liver and kidney |  | 
Ac-KWRSA(GalNac)LWRWRLWRVRSWSR-NH2 (Ac-KWRSA[GalNAc]LWRWRLWRVRSWSR-NH2; not fully specified; printed as Ac-KWRSA(GalNac)LWRWRLWRVRSWSR-NH2) [ADGN-100GALNAC] | mRNA accumulation in the liver | Liver | 
Ac-LSSRLDA-Ava-KWWERWWREWPRKRR [ADGN-104] | heart and muscles and at lower level in the liver |  | 
Ac-SYTSSTM-Ava-KWWERWWREWPRKRR [ADGN-105] | the brain and at lower level in liver, lung and lymphnode |  | 
Ac-SYTSSTM-Ava-βALWRALWRLWRSLWRLLWKA-NH2 (Ac-SYTSSTM[Ava][βAla]LWRALWRLWRSLWRLLWKA-NH2; SMILES CSCC[C@H](NC(=O)[C@@H](NC(=O)[C@H](CO)NC(=O)[C@H](CO)NC(=O)[C@@H](NC(=O)[C@H](Cc1ccc(O)cc1)NC(=O)[C@H](CO)NC(C)=O)[C@@H](C)O)[C@@H](C)O)C(=O)NCCCCC(=O)NCCC(=O)N[C@@H](CC(C)C)C(=O)N[C@@H](Cc1c[nH]c2ccccc12)C(=O)N[C@@H](CCCNC(=N)N)C(=O)N[C@@H](C)C(=O)N[C@@H](CC(C)C)C(=O)N[C@@H](Cc1c[nH]c2ccccc12)C(=O)N[C@@H](CCCNC(=N)N)C(=O)N[C@@H](CC(C)C)C(=O)N[C@@H](Cc1c[nH]c2ccccc12)C(=O)N[C@@H](CCCNC(=N)N)C(=O)N[C@@H](CO)C(=O)N[C@@H](CC(C)C)C(=O)N[C@@H](Cc1c[nH]c2ccccc12)C(=O)N[C@@H](CCCNC(=N)N)C(=O)N[C@@H](CC(C)C)C(=O)N[C@@H](CC(C)C)C(=O)N[C@@H](Cc1c[nH]c2ccccc12)C(=O)N[C@@H](CCCCN)C(=O)N[C@@H](C)C(N)=O) [ADGN-106TB] | the brain | Brain/Liver | 
Ac-TGNYKALHPDHNG-WRSALRWRLWRWSR-NH2 [ADGN-102] | the brain | Brain/Lung | increase of luciferase expression / efficiency in the lung relative to parent peptide [1]: 3 fold
Ac-THRPPNWSPVWP-RALWRLWRSLWRLRWKA-NH2 (Ac-THRPPNWSPVWPRALWRLWRSLWRLRWKA-NH2) [ADGN-106TC] | the brain | Brain | 
Ac-YIGSR-(G)2-ALWRALWRLWRSLWRLLWKA-NH2 [ADGN-106-Hydro-7] |  |  | reduction of efficiency / luciferase expression by modification or linker vs unmodified ADGN peptide [3]: 28%
Ac-YIGSR-(G)4-ALWRALWRLWRSLWRLLWKA-NH2 (Ac-YIGSRGGGGALWRALWRLWRSLWRLLWKA-NH2) [ADGN-106-Hydro-1] |  |  | luciferase expression [3]: high level of luciferase expression; reduction of efficiency / luciferase expression after serum treatment [3]: 40%
Ac-YIGSR-(PEG)2-βALWRALWRLWRSLWRLLWKA-NH2 (Ac-YIGSR[PEG2′][βAla]LWRALWRLWRSLWRLLWKA-NH2) [ADGN-106-HYPEG2] |  | Tumor/Lung | luciferase expression [3]: high level of luciferase expression; reduction of efficiency / luciferase expression after serum treatment [3]: 21%
Ac-YIGSR-(PEG)4-βALWRALWRLWRSLWRLLWKA-NH2 (Ac-YIGSR[PEG4′][βAla]LWRALWRLWRSLWRLLWKA-NH2) [ADGN-106-HYPEG4] |  | Tumor/Lung | reduction of efficiency / luciferase expression by modification or linker vs unmodified ADGN peptide [3]: 35%
Ac-YIGSR-(PEG)7-βALWRALWRLWRSLWRLLWKA-NH2 (Ac-YIGSR[PEG7′][βAla]LWRALWRLWRSLWRLLWKA-NH2) [ADGN-106-HYPEG7] |  |  | reduction of efficiency / luciferase expression by modification or linker vs unmodified ADGN peptide [3]: 72%
Ac-YIGSR-Ahx-ALWRALWRLWRSLWRLLWKA-NH2 [ADGN-106-Hydro-8] |  |  | increase of mRNA expression / efficiency in the liver relative to ADGN-106 or ADGN-100 ([1]; liver): 2 folds; increase of efficiency in the muscle relative to ADGN-106 ([1]; muscle): 5 folds; luciferase expression [3]: high level of luciferase expression; reduction of efficiency / luciferase expression after serum treatment [3]: 17%
Ac-YIGSR-Ahx-KWRSALWRWRLWRVRSWSR-NH2 [ADGN-100-Hydro-8] |  | Tumor/Lung | increase of efficiency in the kidney relative to ADGN-100 ([1]; kidney): 4 folds; increase of luciferase expression / efficiency in the lung relative to parent peptide [1]: 22 fold
Ac-YIGSR-Aun(CH2)6-ALWRALWRLWRSLWRLLWKA-NH2 [ADGN-106-Hydro-5] |  | Tumor/Lung/; also recorded: Pancreas/Liver | luciferase expression [3]: high level of luciferase expression; reduction of efficiency / luciferase expression after serum treatment [3]: 15%
Ac-YIGSR-Ava(CH2)2-ALWRALWRLWRSLWRLLWKA-NH2 [ADGN-106-Hydro-3] |  | Tumor/Muscle | luciferase expression [3]: high level of luciferase expression; reduction of efficiency / luciferase expression after serum treatment [3]: 32%
Ac-YIGSR-Balwralwrlwrslwrllwka-NH2 (Ac-YIGSR[βAla]LWRALWRLWRSLWRLLWKA-NH2) [ADGN-106-Hydro] |  |  | luciferase expression [3]: high level of luciferase expression; reduction of efficiency / luciferase expression after serum treatment [3]: 80%
Stearyl-βA-ALWRALWRLWRSLWRLLWKA-NH2 (Stearyl-[βAla]ALWRALWRLWRSLWRLLWKA-NH2) [ADGN-106 Stearyl] |  | Liver/Spleen | 
beta-AKWFERWFREWPRKRR (N-terminal beta-alanine; VARIANT 1 beta-A) [VEPEP-3a] |  | Kidney/Pancreas | 
beta-ALRWWLRWASRWFSRWAWWR (N-terminal beta-alanine; VARIANT 1 beta-A) [VEPEP-9] |  | Brain/Liver/; also recorded: Lung/Kidney/ | 
beta-RWWLRWASRWFSRWAWR (not fully specified (residue 1, N-terminus); printed as beta-RWWLRWASRWFSRWAWR) [VEPEP-9C] |  | Liver/Lung/; also recorded: Kidney/Brain | 

— US12357695B2, “Peptides and nanoparticles for intracellular delivery of molecules” (AADIGEN, LLC, priority 2019, dated 2025)
